Experimental data from the kinase profiling compilation of Christmann-Franck et al. (2016).

Assays:
Assay in all cases: radiometric filter-binding kinase assay, Kinase HotSpot
Settings in all cases: compound 0.5 µM; ATP 10 µM
HIPK3 (human) = HIPK3 (human) (UniProt Q9H422)
CHEK1 (human) = CHEK1 (human) (UniProt O14757)
PIM3 (human) = PIM3 (human) (UniProt Q86V86)
FGR (human) = FGR (human) (UniProt P09769)
CDK1 CCNB1 (human) = CDK1 CCNB1 (human) (UniProt P06493+P14635)
PIM2 (human) = PIM2 (human) (UniProt Q9P1W9)
SRC (human) = SRC (human) (UniProt P12931)
SLK (human) = SLK (human) (UniProt Q9H2G2)
STK33 (human) = STK33 (human) (UniProt Q9BYT3)
STK24 (human) = STK24 (human) (UniProt Q9Y6E0)
INSRR (human) = INSRR (human) (UniProt P14616)
TGFBR1 (human) = TGFBR1 (human) (UniProt P36897)
MAP4K2 (human) = MAP4K2 (human) (UniProt Q12851)
IRAK4 (human) = IRAK4 (human) (UniProt Q9NWZ3)
[1] = target: JAK1 JH1 catalytic (human) (UniProt P23458)
ADRBK1 (human) = ADRBK1 (human) (UniProt P25098)
PDGFRA (human) = PDGFRA (human) (UniProt P16234)
MAP3K2 (human) = MAP3K2 (human) (UniProt Q9Y2U5)
TNK2 (human) = TNK2 (human) (UniProt Q07912)
NEK9 (human) = NEK9 (human) (UniProt Q8TD19)
PRKX (human) = PRKX (human) (UniProt P51817)
MAPK12 (human) = MAPK12 (human) (UniProt P53778)
GSK3A (human) = GSK3A (human) (UniProt P49840)
MAP3K3 (human) = MAP3K3 (human) (UniProt Q99759)
CDK1 CCNA2 (human) = CDK1 CCNA2 (human) (UniProt P06493+P20248)
CDK4 CCND3 (human) = CDK4 CCND3 (human) (UniProt P30281+P11802)
CAMK4 (human) = CAMK4 (human) (UniProt Q16566)
MAP2K2 (human) = MAP2K2 (human) (UniProt P36507)
CDK3 CCNE1 (human) = CDK3 CCNE1 (human) (UniProt Q00526+P24864)
WNK2 (human) = WNK2 (human) (UniProt Q9Y3S1)
AURKC (human) = AURKC (human) (UniProt Q9UQB9)
NEK1 (human) = NEK1 (human) (UniProt Q96PY6)
TEK (human) = TEK (human) (UniProt Q02763)
MAP3K11 (human) = MAP3K11 (human) (UniProt Q16584)
CAMK2G (human) = CAMK2G (human) (UniProt Q13555)
MAP3K9 (human) = MAP3K9 (human) (UniProt P80192)
AKT2 (human) = AKT2 (human) (UniProt P31751)
PAK7 (human) = PAK7 (human) (UniProt Q9P286)
FRK (human) = FRK (human) (UniProt P42685)
NTRK3 (human) = NTRK3 (human) (UniProt Q16288)
CSK (human) = CSK (human) (UniProt P41240)

Chain of CHEK1 (human) (O14757 whole entry, looked up): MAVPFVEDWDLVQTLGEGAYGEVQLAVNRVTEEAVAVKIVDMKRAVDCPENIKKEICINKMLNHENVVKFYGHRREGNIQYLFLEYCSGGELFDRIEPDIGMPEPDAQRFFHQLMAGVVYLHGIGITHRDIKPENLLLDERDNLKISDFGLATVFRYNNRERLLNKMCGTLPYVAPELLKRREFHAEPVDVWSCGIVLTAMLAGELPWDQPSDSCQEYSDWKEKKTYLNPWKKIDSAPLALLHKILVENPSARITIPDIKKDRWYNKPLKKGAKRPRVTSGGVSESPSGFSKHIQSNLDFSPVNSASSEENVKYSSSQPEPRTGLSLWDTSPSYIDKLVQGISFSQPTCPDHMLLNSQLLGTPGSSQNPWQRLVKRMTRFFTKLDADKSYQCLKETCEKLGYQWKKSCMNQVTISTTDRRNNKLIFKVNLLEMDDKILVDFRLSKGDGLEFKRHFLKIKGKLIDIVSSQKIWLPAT
Chain of NEK9 (human) (Q8TD19 whole entry, looked up): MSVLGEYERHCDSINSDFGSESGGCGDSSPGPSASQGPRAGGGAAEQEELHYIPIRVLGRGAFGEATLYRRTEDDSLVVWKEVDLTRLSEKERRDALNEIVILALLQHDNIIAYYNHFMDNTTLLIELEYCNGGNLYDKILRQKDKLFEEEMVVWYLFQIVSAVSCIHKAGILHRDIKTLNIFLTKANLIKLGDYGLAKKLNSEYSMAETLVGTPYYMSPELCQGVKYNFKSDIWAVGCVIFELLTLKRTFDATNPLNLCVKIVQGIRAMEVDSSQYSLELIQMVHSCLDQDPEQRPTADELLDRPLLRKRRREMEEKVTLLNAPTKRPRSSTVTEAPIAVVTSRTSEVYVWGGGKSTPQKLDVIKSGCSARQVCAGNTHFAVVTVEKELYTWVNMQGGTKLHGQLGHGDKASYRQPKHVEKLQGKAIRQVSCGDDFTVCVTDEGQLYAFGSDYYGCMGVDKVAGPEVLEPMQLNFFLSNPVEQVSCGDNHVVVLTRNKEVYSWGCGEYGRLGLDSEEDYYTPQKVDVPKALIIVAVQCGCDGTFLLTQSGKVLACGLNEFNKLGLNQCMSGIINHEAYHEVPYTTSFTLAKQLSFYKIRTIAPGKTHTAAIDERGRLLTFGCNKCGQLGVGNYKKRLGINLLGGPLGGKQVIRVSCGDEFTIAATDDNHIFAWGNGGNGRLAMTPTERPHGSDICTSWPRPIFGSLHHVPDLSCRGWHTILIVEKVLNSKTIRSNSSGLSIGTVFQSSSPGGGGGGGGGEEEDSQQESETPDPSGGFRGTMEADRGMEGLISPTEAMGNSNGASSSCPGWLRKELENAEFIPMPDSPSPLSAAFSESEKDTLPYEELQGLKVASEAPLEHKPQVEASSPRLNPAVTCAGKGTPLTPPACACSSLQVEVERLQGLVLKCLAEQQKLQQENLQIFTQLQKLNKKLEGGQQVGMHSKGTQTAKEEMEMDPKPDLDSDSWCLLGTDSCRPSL
Chain of CAMK4 (human) (Q16566 whole entry, looked up): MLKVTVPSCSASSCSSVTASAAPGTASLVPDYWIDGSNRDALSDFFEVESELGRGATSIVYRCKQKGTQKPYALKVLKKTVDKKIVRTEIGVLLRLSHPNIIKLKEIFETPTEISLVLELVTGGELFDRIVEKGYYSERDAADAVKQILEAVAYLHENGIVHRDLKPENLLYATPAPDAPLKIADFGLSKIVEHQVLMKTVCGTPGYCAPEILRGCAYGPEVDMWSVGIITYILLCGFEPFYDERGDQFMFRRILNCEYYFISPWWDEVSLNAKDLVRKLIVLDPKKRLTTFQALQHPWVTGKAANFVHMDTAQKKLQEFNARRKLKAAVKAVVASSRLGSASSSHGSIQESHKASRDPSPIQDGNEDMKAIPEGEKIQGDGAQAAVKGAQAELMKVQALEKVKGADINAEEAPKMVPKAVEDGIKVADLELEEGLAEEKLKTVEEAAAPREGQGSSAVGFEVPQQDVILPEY
Chain of MAP3K9 (human) (P80192 whole entry, looked up): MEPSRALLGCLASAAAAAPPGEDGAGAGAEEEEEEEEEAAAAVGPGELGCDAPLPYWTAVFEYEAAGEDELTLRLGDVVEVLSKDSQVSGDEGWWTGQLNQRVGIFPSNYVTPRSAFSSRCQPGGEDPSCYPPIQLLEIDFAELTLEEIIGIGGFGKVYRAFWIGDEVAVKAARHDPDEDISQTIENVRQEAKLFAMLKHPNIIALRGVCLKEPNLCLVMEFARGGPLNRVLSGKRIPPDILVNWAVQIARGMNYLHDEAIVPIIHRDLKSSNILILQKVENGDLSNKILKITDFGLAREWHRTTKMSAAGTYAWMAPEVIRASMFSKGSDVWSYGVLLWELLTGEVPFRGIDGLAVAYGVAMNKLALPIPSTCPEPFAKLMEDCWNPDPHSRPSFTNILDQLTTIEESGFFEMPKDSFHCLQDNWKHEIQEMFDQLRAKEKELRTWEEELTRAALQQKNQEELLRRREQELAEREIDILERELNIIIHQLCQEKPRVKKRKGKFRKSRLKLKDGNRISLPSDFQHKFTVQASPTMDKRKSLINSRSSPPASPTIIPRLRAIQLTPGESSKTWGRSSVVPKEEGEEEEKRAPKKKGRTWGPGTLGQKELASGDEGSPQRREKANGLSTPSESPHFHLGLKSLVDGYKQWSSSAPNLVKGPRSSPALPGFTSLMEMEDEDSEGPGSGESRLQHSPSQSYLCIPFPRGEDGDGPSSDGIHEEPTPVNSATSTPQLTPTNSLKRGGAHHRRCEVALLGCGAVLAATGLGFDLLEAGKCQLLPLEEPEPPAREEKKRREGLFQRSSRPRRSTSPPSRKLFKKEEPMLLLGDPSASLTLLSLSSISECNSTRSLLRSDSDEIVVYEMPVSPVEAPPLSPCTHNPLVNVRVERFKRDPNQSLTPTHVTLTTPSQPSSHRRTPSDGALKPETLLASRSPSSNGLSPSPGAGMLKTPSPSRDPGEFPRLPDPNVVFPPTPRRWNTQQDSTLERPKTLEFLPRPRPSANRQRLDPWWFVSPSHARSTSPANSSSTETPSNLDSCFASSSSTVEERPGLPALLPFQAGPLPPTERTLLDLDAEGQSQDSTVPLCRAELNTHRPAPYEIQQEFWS
Chain of PIM2 (human) (Q9P1W9 whole entry, looked up): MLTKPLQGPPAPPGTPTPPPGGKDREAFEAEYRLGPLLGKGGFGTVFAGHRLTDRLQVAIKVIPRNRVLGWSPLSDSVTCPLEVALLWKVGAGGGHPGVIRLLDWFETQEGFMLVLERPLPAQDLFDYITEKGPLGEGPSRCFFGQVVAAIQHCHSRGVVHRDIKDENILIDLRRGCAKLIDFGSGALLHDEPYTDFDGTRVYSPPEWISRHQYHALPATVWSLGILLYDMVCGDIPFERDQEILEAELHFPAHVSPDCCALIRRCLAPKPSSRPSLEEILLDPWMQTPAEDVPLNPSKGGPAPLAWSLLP
Chain of SRC (human) (P12931 whole entry, looked up): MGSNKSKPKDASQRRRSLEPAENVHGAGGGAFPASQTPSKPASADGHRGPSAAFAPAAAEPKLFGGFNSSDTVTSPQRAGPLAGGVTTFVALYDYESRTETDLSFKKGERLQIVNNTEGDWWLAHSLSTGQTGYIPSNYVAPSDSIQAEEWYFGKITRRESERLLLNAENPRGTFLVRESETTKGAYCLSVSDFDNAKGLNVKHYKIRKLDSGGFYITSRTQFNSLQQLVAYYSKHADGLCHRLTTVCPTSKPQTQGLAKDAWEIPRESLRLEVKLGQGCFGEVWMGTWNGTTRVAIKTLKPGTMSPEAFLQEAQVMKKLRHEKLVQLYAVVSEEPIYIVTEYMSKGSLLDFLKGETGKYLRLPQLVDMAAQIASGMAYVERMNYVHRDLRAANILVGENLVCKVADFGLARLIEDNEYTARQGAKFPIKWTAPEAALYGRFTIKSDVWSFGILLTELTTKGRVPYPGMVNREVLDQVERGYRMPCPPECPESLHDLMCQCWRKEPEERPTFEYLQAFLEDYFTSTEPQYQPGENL
Chain of JAK1 JH1 catalytic (human) (P23458 whole entry, looked up): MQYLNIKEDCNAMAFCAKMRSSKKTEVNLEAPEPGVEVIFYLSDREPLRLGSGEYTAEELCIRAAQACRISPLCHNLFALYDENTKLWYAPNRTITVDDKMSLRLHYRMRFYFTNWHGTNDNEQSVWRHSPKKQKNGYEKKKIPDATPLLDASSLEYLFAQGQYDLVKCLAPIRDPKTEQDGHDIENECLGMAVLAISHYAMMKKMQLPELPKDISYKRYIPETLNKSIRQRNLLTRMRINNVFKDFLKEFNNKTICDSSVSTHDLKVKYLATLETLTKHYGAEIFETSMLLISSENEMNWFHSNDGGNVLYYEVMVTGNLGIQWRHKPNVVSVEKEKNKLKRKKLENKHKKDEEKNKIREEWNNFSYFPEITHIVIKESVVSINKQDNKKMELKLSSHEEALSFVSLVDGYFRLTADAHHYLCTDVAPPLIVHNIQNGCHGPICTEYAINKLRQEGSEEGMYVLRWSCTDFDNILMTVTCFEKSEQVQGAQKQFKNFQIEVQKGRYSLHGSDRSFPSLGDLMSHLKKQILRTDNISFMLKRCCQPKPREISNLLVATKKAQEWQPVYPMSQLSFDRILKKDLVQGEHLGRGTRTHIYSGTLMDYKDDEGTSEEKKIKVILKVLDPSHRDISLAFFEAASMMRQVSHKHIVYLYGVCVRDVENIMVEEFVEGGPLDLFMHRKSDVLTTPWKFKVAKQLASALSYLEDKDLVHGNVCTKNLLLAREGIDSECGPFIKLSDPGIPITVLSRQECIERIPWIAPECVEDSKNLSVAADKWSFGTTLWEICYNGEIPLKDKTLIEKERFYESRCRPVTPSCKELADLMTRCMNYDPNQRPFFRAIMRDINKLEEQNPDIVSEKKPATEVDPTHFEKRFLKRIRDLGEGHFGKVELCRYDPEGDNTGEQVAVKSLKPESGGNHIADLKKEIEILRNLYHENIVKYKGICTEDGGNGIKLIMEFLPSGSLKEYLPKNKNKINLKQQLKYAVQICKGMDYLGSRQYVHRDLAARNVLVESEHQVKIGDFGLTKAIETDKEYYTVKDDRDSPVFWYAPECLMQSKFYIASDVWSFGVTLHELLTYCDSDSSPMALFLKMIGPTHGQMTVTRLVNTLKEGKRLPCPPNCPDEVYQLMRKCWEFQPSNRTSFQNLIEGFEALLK

For `COc1ccc(COc2ccc(Cc3cnc(N)nc3N)cc2OC)cc1`, the residual activity (HIPK3 (human)) was 102%, the residual activity (CHEK1 (human)) was 107% and the residual activity (PIM3 (human)) was 95.9%. It also gave a residual activity (FGR (human)) of 92.3%, a residual activity (CDK1 CCNB1 (human)) of 91.3% and a residual activity (PIM2 (human)) of 107%. The residual activity (SRC (human)) was 97.9%, the residual activity (SLK (human)) was 97.7% and the residual activity (STK33 (human)) was 96.4%. The residual activity (STK24 (human)) was 93.5%, the residual activity (INSRR (human)) was 99.4% and the residual activity (TGFBR1 (human)) was 97%. For the same molecule, the residual activity (MAP4K2 (human)) was 120%, the residual activity (IRAK4 (human)) was 110% and the residual activity [1] was 105%. It also gave a residual activity (ADRBK1 (human)) of 96.1%, a residual activity (PDGFRA (human)) of 99.4% and a residual activity (MAP3K2 (human)) of 108%. It also gave a residual activity (TNK2 (human)) of 105%, a residual activity (NEK9 (human)) of 93.3% and a residual activity (PRKX (human)) of 105%. It also gave a residual activity (MAPK12 (human)) of 102%, a residual activity (GSK3A (human)) of 108% and a residual activity (MAP3K3 (human)) of 97.8%. The residual activity (CDK1 CCNA2 (human)) was 98.7%, the residual activity (CDK4 CCND3 (human)) was 107% and the residual activity (CAMK4 (human)) was 94.7%. The residual activity (MAP2K2 (human)) was 101%, the residual activity (CDK3 CCNE1 (human)) was 82.9% and the residual activity (WNK2 (human)) was 94.6%. The residual activity (AURKC (human)) was 97.5%, the residual activity (NEK1 (human)) was 95.6% and the residual activity (TEK (human)) was 101%. For the same molecule, the residual activity (MAP3K11 (human)) was 101%, the residual activity (CAMK2G (human)) was 94.4% and the residual activity (MAP3K9 (human)) was 105%. It also gave a residual activity (AKT2 (human)) of 102% and a residual activity (PAK7 (human)) of 103%.
Molecule `COc1ccc2c(c[n+](C)c3c4cc5c(cc4ccc23)OCO5)c1OC` has a residual activity (HIPK3 (human)) of 96.6%, a residual activity (FRK (human)) of 89.3% and a residual activity (CHEK1 (human)) of 94.4%. For the same molecule, the residual activity (PIM3 (human)) was 99.6%, the residual activity (FGR (human)) was 91.3% and the residual activity (CDK1 CCNB1 (human)) was 84.4%. The residual activity (PIM2 (human)) was 105%, the residual activity (SRC (human)) was 91.5% and the residual activity (SLK (human)) was 87.4%. The residual activity (STK33 (human)) was 102%, the residual activity (STK24 (human)) was 84.2% and the residual activity (INSRR (human)) was 91.8%. The residual activity (TGFBR1 (human)) was 98.5%, the residual activity (NTRK3 (human)) was 95.2% and the residual activity (MAP4K2 (human)) was 96.1%. For the same molecule, the residual activity (IRAK4 (human)) was 116%, the residual activity [1] was 88.5% and the residual activity (ADRBK1 (human)) was 96.6%. It also gave a residual activity (CSK (human)) of 106%, a residual activity (PDGFRA (human)) of 101% and a residual activity (MAP3K2 (human)) of 99.8%. It also gave a residual activity (TNK2 (human)) of 101%, a residual activity (NEK9 (human)) of 97% and a residual activity (PRKX (human)) of 95.1%. The residual activity (MAPK12 (human)) was 100%, the residual activity (GSK3A (human)) was 105% and the residual activity (MAP3K3 (human)) was 101%. The residual activity (CDK1 CCNA2 (human)) was 89.7%, the residual activity (CDK4 CCND3 (human)) was 98.8% and the residual activity (CAMK4 (human)) was 99.9%. The residual activity (MAP2K2 (human)) was 95.6%, the residual activity (CDK3 CCNE1 (human)) was 91.7% and the residual activity (WNK2 (human)) was 98.5%. The residual activity (AURKC (human)) was 93.5%, the residual activity (NEK1 (human)) was 91.3% and the residual activity (TEK (human)) was 97.2%. The residual activity (MAP3K11 (human)) was 95%, the residual activity (CAMK2G (human)) was 95.9% and the residual activity (MAP3K9 (human)) was 98.1%. It also gave a residual activity (AKT2 (human)) of 93.6% and a residual activity (PAK7 (human)) of 77.4%.
